Results from patent US20240352430A1, “FoF1-ATP SYNTHASE OLIGOMER” (KYOTO UNIVERSITY, priority 2021, published 2024).

Target: T1, FoF1-ATP synthase of cultured cells derived from human (HEK293) (Homo sapiens, UniProt P05496)
T1 construct: fractions containing cultured cell FoF1-ATP synthase obtained by the first centrifugation; endogenous in cells; host or cells: HEK293 (enzyme solubilised with GDN from the mitochondrial inner membrane and fractionated on sucrose density gradients)
Test: ATP hydrolysis activity, change in absorbance at 340 nm by NADH oxidation
Format: biochemical
Description: The FoF1-ATP synthase oligomer of the present invention has, in one embodiment, ATP synthesis activity or hydrolysis activity. These activities can be determined by methods well known to those skilled in the art. For example, ATP synthesis activity can be determined by using a luminescent reaction of the luciferin/luciferase system to determine the generated ATP. In addition, ATP hydrolysis activity can be determined based on absorbance changes at 340 nm by conjugating the hydrolysis reaction of ATP and the oxidation reaction from NADH (nicotinamide adenine dinucleotide) to NAD^+ in the presence of phosphoenolpyruvic acid, pyruvate kinase, and lactate dehydrogenase.
ATP hydrolysis activity of the fractions containing cultured cell FoF1-ATP synthase obtained by the first centrifugation under discontinuous density gradient of sucrose was determined. That is, the hydrolysis reaction of ATP with FoF1-ATP synthase was determined at 20° C. as change in absorbance at 340 nm by oxidation from NADH to NAD^+ conjugated with this reaction.
ATP hydrolysis activity of the samples contained in fraction 6-1 was determined in the same manner as described above in the presence or absence of oligomycin.
ATP hydrolysis activity of the samples collected from fraction 7 containing FoF1-ATP synthase tetramer and dimer was determined in the presence or absence of oligomycin, as in Example 1. If IF1, an endogenous inhibitory protein of mammalian ATP synthase, binds to FoF1-ATP synthase, the enzyme reaction is stopped. In order to release from FoF1-ATP synthase, samples collected from fraction 7 were mixed with 330 mM KCl and 100 mM Tris-HCl (pH 8.2). After incubation for 10 minutes at room temperature, ATP hydrolysis activity was determined. IF1 forms a dimer, binds between two FoF1-ATP synthase dimers, and stops the rotation of F1 present outside the membrane. As a result, ATP synthesis of the enzyme is stopped. Oligomycin binds to Fo of FoF1-ATP synthase and inhibits ATP synthesis.

Enzyme inhibition of the ATP synthase contained in fraction 7 by IF1 (fraction 7, third centrifugation, activity compared with and without treatment to release IF1 (330 mM KCl, 100 mM Tris-HCl pH 8.2, 10 minutes), FIG. 12) | Molecule | ATP hydrolysis activity of the sample contained in fraction 6-1 in the presence of oligomycin (fraction 6-1 of first discontinuous sucrose density gradient centrifugation, HEK293, 20° C., FIG. 7) | ATP hydrolysis activity of the sample of fraction 7 in the presence of oligomycin (fraction 7 of third continuous sucrose density gradient centrifugation, HEK293, regardless of treatment to release IF1, FIG. 12)
– | CC[C@H]1/C=C/C=C/C[C@@H](C)[C@H](O)[C@@](C)(O)C(=O)[C@@H](C)[C@H](O)[C@@H](C)C(=O)[C@@H](C)[C@H](O)[C@@H](C)/C=C/C(=O)O[C@@H]2[C@H](C)[C@H](CC1)O[C@]1(CC[C@H](C)[C@H](C[C@@H](C)O)O1)[C@H]2C [oligomycin] | inhibited | did not exhibit ATP hydrolysis activity
undergoes enzyme inhibition by IF1 | IF1: ATP synthase inhibitory factor subunit 1, an endogenous inhibitory protein of a mammalian ATP synthase (protein, UniProt Q9UII2 26-106, looked up) ATPase inhibitor, …: GSDQSENVDRGAGSIREAGGAFGKREQAEEERYFRAQSREQLAALKKHHEEEIVHHKKEIERLQKEIERHKQKIKMLKHDD | – | –
